Consider 10 compounds from ChEMBL document CHEMBL2146393, “Synthesis and antiviral activity of 4,6-disubstituted pyrimido[4,5-b]indole ribonucleosides” (Bioorg Med Chem, 2012).

Series [1] has as its system HL-60. Description: Cytotoxic activity against human HL60 cells. The class given is cell-based.
Series [2] deals with HeLa. Description: Cytostatic activity against human HeLa cells. Format: cell-based.
Series [3] relates to Hepatitis C virus. Description: Antiviral activity against Hepatitis C virus. Format: functional, organism-based. To be noted: Hepacivirus hominis.
For series [4], the system named is CCRF-CEM. Description: Cytostatic activity against human CCRF-CEM cells. Format: cell-based.
In series [5] the test system is HL-60. Description: Cytostatic activity against human HL60 cells. The class given is cell-based.
Series [6] deals with CCRF-CEM. Description: Cytotoxic activity against human CCRF-CEM cells. The class given is cell-based.
In series [7] the test system is dengue virus type 2. Description: Antiviral activity against Dengue virus 2 NGC infected in human HuH7-Ehr2 cells after 48 hrs by luciferase reporter gene assay. The class given is functional, organism-based. The settings on record: Huh-7, 48 h. In general terms: Reporter assays use an easily measured gene product as a stand-in for the process of interest.
A short description of series [8]: Cytotoxicity against human HepG2 cells after 96 hrs by CCK8 assay. The class given is cell-based.
Series [9] has as its system THP-1. Description: Cytotoxicity against human THP1 cells after 96 hrs by CCK8 assay. The class given is cell-based. The settings on record: THP-1, 96 h. For orientation: Tetrazolium dyes change colour on reduction, which living cells bring about.
Series [10] has as its system HeLa. Description: Cytotoxic activity against human HeLa cells. The class given is cell-based.

pIC50: −log10 of the molar value. Calls of active or inactive are those of the source. No cut-off for these calls is given here.

Broadly, the pIC50 is the negative decadic logarithm of the IC50, by convention in mol/L. Read a low pIC50 as a high IC50. A word on the CC50: it is the concentration giving 50% cytotoxicity. On to `OC[C@H]1O[C@@H](n2c3ccc(Cl)cc3c3c(-c4cccs4)ncnc32)[C@H](O)[C@@H]1O`, for which the Activity result in series [1], in series [2], in series [4], in series [5], in series [6] and in [10] was “Non-toxic” in each case. For the same compound, in series [3], the outcome was inactive. Also, the pIC50 was 6.47 in series [7] and 4.34 in series [9]. In series [8], this compound returned a CC50 at 96 h of 19.9 µM.
For the compound `OC[C@H]1O[C@@H](n2c3ccc(Cl)cc3c3c(-c4ccoc4)ncnc32)[C@H](O)[C@@H]1O`, the Activity result in [1], in series [2], in series [4], in series [5], in series [6] and in series [10] was “Non-toxic” in each case. For the same compound, the outcome in [3] was inactive. Also, the pIC50 in [7] is 4.61; in series [9] it was less than 4.30. For the same compound, the CC50 at 96 h in series [8] is greater than 50 µM.
Regarding `OC[C@H]1O[C@@H](n2c3ccc(Cl)cc3c3c(-c4cc5ccccc5o4)ncnc32)[C@H](O)[C@@H]1O`, the Activity entry in [1], in series [2], in series [4], in [5], in series [6] and in [10] was “Non-toxic” in each case. In addition, the outcome in series [3] was inactive. Further, the pIC50 in [7] was 6.01; in [9], less than 4.30. The compound also had a CC50 at 96 h in series [8] greater than 50 µM.
As to `OC[C@H]1O[C@@H](n2c3ccc(Cl)cc3c3c(-c4ccccc4)ncnc32)[C@H](O)[C@@H]1O`, the Activity entry in [1], in [2], in series [4], in series [5], in [6] and in [10] was “Non-toxic” each time. In addition, the outcome in series [3] was inactive. Also, the pIC50 in series [7] was 4.58; in series [9] it was less than 4.30. This compound also had a CC50 at 96 h in series [8] greater than 50 µM.
For the compound `OC[C@H]1O[C@@H](n2c3ccccc3c3c(-c4ccco4)ncnc32)[C@H](O)[C@@H]1O`, the Activity result in [1], in series [2], in series [4], in series [5], in [6] and in [10] was “Non-toxic” in each case. The result in series [3] was inactive. Moreover, the pIC50 was 4.08 in series [7] and less than 4.30 in [9]. The same compound registered a CC50 at 96 h in [8] greater than 50 µM.
Regarding `OC[C@H]1O[C@@H](n2c3ccc(Cl)cc3c3c(-c4ccco4)ncnc32)[C@H](O)[C@@H]1O`, the Activity result in [1], in [2], in series [4], in series [5], in series [6] and in series [10] was “Non-toxic” throughout. For the same compound, the result in series [3] was inactive. Besides, the values for the pIC50 in series [7] and in [9] were 6.62 and 5.81, respectively. In addition, the CC50 at 96 h in series [8] was 0.175 µM.
For `OC[C@H]1O[C@@H](n2c3ccc(-c4ccoc4)cc3c3c(-c4ccco4)ncnc32)[C@H](O)[C@@H]1O`, the Activity result in series [1], in [2], in [4], in series [5], in series [6] and in series [10] was “Non-toxic” in each case. Also, the result in series [3] was inactive. In addition, the pIC50 was 4.49 in series [7] and 4.35 in series [9]. The same compound displayed a CC50 at 96 h in series [8] of 33.1 µM.
With `OC[C@H]1O[C@@H](n2c3ccc(Cl)cc3c3c(-c4ccsc4)ncnc32)[C@H](O)[C@@H]1O`, the Activity result in series [1], in series [2], in series [4], in series [5], in [6] and in [10] was “Non-toxic” throughout. Also, the outcome in series [3] was inactive. The values for the pIC50 in series [7] and in series [9] were 4.06 and less than 4.30, respectively. Further, the CC50 at 96 h in series [8] is greater than 50 µM.
Take `OC[C@H]1O[C@@H](n2c3ccc(-c4ccccc4)cc3c3c(-c4ccco4)ncnc32)[C@H](O)[C@@H]1O`: the Activity result in series [1], in series [2], in [4], in [5], in series [6] and in series [10] was “Non-toxic” in each case. Also, the result in series [3] was inactive. The pIC50 in [7] is 5.54; in [9] it was 4.38. The compound also registered a CC50 at 96 h in [8] of 20.7 µM.
With `OC[C@H]1O[C@@H](n2c3ccc(-c4ccco4)cc3c3c(-c4ccco4)ncnc32)[C@H](O)[C@@H]1O`, the Activity result in series [1], in series [2], in [4], in series [5], in series [6] and in series [10] was “Non-toxic” in each case. In addition, in series [3], the outcome was inactive. Moreover, the pIC50 in series [7] is 4.75; in [9], less than 4.30. This compound also yielded a cytotoxic concentration (CC50) at 96 h in series [8] of 7.44 µM.
